Experimental data published in US10231985B2, “Compounds and compositions comprising such compounds for the prevention or treatment of dyslipidaemias” (CENTRE NATIONAL DE LA RECHERCHE SCIENTIFIQUE, priority 2013, dated 2019).

Legend:
[1] = tested on: BRIN-BD11 pancreatic β-cells; experiment: Cell viability of palmitic acid-lipointoxicated pancreatic β-cells (propidium iodide, flow cytometry); type: cell-based, rat; conditions: BRIN-BD11, 200 μM palmitic acid
Description: Pancreatic β-cells, BRIN-BD11, were grown under control conditions or in the presence of an exogenous source of saturated fatty acid (200 μM palmitic acid), as described by Dhayal & Morgan (2011), in order to generate lipointoxication conditions, with or without the addition of OAG. A) The proportion of dead cells was estimated in the absence (control) or presence of palmitic acid, for increasing concentrations of OAG. B) eIF2α phosphorylation levels were also analyzed under the various conditions by Western blot, in the presence or absence (Ø) of OAG, and were normalized to total eIF2α.
The lipid species are prepared in ethanol before being complexed with bovine serum albumin (BSA, first depleted of fatty acids) by incubation for 1 hour at 37° C. The palmitic acid stock solution is obtained by adding one volume of ethanol before the whole is heated to 70° C. for homogenization. OAG and LPA solutions are prepared in 100% ethanol at room temperature. For the incubations of mammalian cells, the final BSA and ethanol concentrations in the culture medium are kept at 1% and 0.5% (w/v), respectively.
The rat pancreatic β-cell line (BRIN-BD11) is grown in complete RPMI-1640 medium, containing 11 mM glucose and supplemented with 10% (v/v) fetal calf serum (FCS), 2 mM L-glutamine, 100 U/ml penicillin and 100 μg/ml streptomycin. For each experiment, the cells are first seeded at a density of 0.5×10^5 cells/ml in 6-well plates for 24 hours. Thereafter, the complete medium is replaced by an equivalent lacking FCS but containing the lipid reagents of interest, at the desired concentrations, complexed with BSA. Under the control conditions, identical amounts of BSA and ethanol are then used. […] After incubation on ice for 10 minutes, the samples thus obtained are analyzed by flow cytometry. A Beckman Coulter EPICS XL MCL is used for the quantification, an FL3 channel is used to detect the emissions of the PI intercalated in the DNA, and the analysis is carried out using the EXPO32 ADC software (Applied Cytometry Systems, V 1.1 build 207).

[2] = tested on: phospholipids of the cellular membranes (hem1Δ strain); experiment: Fatty acid content of cellular phospholipids (lipid extraction, ESI-MS); type: cell-based, Saccharomyces cerevisiae
Description: The hem1Δ strain is grown in liquid medium (YPG^A, YPG^+, or YPG^++200 μM compound to be tested) under aerobic conditions, with shaking and at 28° C. for 7 hours, from an initial cell concentration of 2×10^6 cells/ml. At the conclusion of the culture, 10^8 cells are collected in order to carry out a total lipid extraction. After having suspended the cells in 1 ml of distilled water at 4° C., 500 μl of glass beads (Ø 0.6 mm) are added and the whole then undergoes 3 sequences of 20 seconds at 5000 rpm in a shaker (the tubes are kept on ice between each of the 3 sequences). The cell lysate then obtained, supplemented with bead-washing solution (1 ml), is then transferred to a 40 ml glass tube (Corex™) before carrying out the lipid extraction using a 2:1 (v/v) methanol:chloroform ratio. First, 6 ml of methanol is added and the whole is vortexed for 30 seconds and then incubated for 15 minutes at 65° C. Once the mixture cools to room temperature, 3 ml of chloroform is added and then the whole is vortexed again for 30 seconds before allowing the extraction to proceed for 16 hours. Later, the sample is centrifuged for 12 minutes at 10000 g before transferring the supernatant to a new Corex™ tube. After adding 2 ml of chloroform and then 4 ml of distilled water, the whole is vortexed for 30 seconds and then centrifuged for 8 minutes at 3000 g. After removing the resulting upper phase, the lower organic phase is collected in a glass hemolysis tube. Finally, the solvent is evaporated under a stream of nitrogen at 80° C. in order to obtain the total cellular lipid samples.
The total cellular lipid samples are resuspended in 1 ml of dichloromethane while being vortexed for 30 seconds. The whole is deposited on a silica column (BOND ELUT-SI, 100 mg 1 ml) preconditioned successively with 3 ml of methanol and then 2 ml of dichloromethane. The fraction retained by the column is then washed successively with 2 ml of dichloromethane and then 3 ml of acetone. Finally, 2 ml of a 50:45:5 (v/v/v) chloroform/methanol/water mixture is deposited on the column and the phospholipids thus eluted are collected in a glass hemolysis tube. The solvent is evaporated under nitrogen at 80° C. in order to obtain the cellular phospholipid samples.
Once resuspended in 100 μl of the mixture Mix^− (2:1:1 (v/v/v) isopropanol/acetonitrile/water+1% (v/v) triethylamine) or the mixture Mix^+ (2:1:1 (v/v/v) isopropanol/acetonitrile/water+1% (v/v) formic acid), the samples are analyzed by electrospray ionization mass spectrometry (ESI-MS) in negative or positive mode, respectively, and the results obtained are used to analyze the fatty acid content of the various phospholipid species.

[3] = tested on: lipase; experiment: Resistance to hydrolytic activity of lipases (thin-layer chromatography); type: in vitro ADME; conditions: 10 U of lipase, 30 minutes, 37° C.
Description: OAG (15 μmol) and N,N-diethanololeamide were subjected (+) or not (−) to exposure to 10 U of lipase for 30 minutes at 37° C. Following the incubation, the lipid species were extracted from the samples before being separated by thin-layer chromatography.

[4] = tested on: hem1Δ yeasts grown under SFA accumulation conditions; experiment: Restoration of growth of lipointoxicated hem1Δ yeast; type: cell-based, Saccharomyces cerevisiae; conditions: after 3 days, increasing concentrations
Description: The strain bearing the hem1Δ mutation is grown, under aerobic conditions, with shaking and at 28° C., in liquid YPG^A medium (YPG (1% yeast extract (w/v), 1% peptone (w/v) and 2% glucose (w/v)) supplemented with 80 μg/ml 6-aminolevulinic acid (ALA)). Lipointoxication by saturated fatty acids (SFA) is caused by depletion of unsaturated fatty acids (UFA), the synthesis of which is dependent on the presence of heme (the prosthetic group of the Ole1p enzyme in particular), by transfer to YPG^+ medium (YPG supplemented with 80 μg/ml ergosterol to compensate for the sterol depletion obtained under this condition). Lipointoxication can be induced on solid YPG^+ medium+2% agar (w/v) by transferring 3500 cells (hem1Δ from preculture in YPG^A) per cm^2 or, alternatively, in liquid medium by inoculating 2×10^6 cells/ml YPG^+. Classically, the effects of SFA lipointoxication are analyzed 7 hours after the transfer to YPG^+ medium. The ability of a compound to counter the deleterious effects of SFA lipointoxication, in turn, is evaluated successively to the addition of this compound on (or in) the YPG^+ transfer medium, after seeding with the cells.
Following the induction of SFA lipointoxication (for hem1Δ grown on solid medium) 5 μl drops of solutions of the various compounds at 10 mM in dimethylsulfoxide (DMSO) or ethanol (EtOH) are deposited on the surface of the agar. The ability of a compound to counter the arrest of lipid-induced cell growth is estimated by the appearance of a halo of hem1Δ colonies at the site of the deposition of said compound after 3 days of culture at 28° C. (see Deguil et al., 2011).
Jointly with the induction of SFA lipointoxication (for hem1Δ in liquid medium), the various compounds are added to the cultures at an initial concentration of 200 μM. Proliferation is monitored by spectrometric measurement of cell density, at regular time intervals (every hour over the duration of the observation). At a wavelength of 600 nm, one optical density unit (OD600 nm) corresponds to 2×10^7 cells/ml.

[5] = tested on: QM strain (cells not synthesizing triglycerides); experiment: Toxicity test on QM strain (growth inhibition halos); type: cell-based, Saccharomyces cerevisiae; conditions: 5 μl drops on agar, after three days
Description: Drops (5 μl) of OAG, LPA or oleic acid were deposited, from stock solutions at the indicated concentrations, on the surface of an agar medium over which the QM strain had been spread beforehand. […] These halos are, however, not observed in the presence of LPA or of OAG.
In parallel, wild-type (WT) and quadruple mutant (QM) strains are grown, under aerobic conditions, with shaking and at 28° C., in liquid YPG medium before seeding 3500 cells per cm^2 of YPG+2% agar (w/v). Following this transfer to solid medium, 1 μl drops of 1, 10 and 100 mM solutions of the various compounds in DMSO or EtOH are deposited on the agar surface. Separately, DMSO and EtOH are also deposited in order to evaluate the intrinsic toxicity of these two solvents. After 3 days of culture at 28° C., the toxicity of the compounds tested is evaluated by comparing the growth inhibition halo diameters obtained for the depositions of pure solvent with those of the depositions of the various concentrations of the compounds tested. Unlike the WT strain, the QM strain is incapable of buffering excess exogenous oleic acid in the form of neutral lipids (triglycerides (TG) or esterified sterols (ES)) in lipid droplets.

Row | Compound | Apoptosis / proportion of dead cells of pancreatic β-cells [1] | Effect on fatty acid composition of membrane phospholipids [2] | Hydrolysis by lipases [3] | Restoration of the growth of hem1Δ yeasts [4] | Growth inhibition halos on QM strain [5]
1 | CCCCCCCC/C=C\CCCCCCCC(=O)OCC(CO)(CO)CO [3-hydroxy-2,2-bis(hydroxymethyl)propyl oleate] | prevent apoptosis | without restoring a normal diunsaturated phospholipid composition | – | – | –
2 | CCCCCCCC/C=C\CCCCCCCC(=O)N(CCO)CCO [N,N-diethanololeamide] | prevent apoptosis | without restoring a normal diunsaturated phospholipid composition | resists hydrolysis by lipases | – | –
3 | CCCCCCCC/C=C\CCCCCCCC(=O)O [oleic acid, reference compound] | – | – | – | restore the growth | growth inhibition halos (absence of colonies) can be observed
